The record followed here is US20150302140A1, “IN SILICO IDENTIFICATION OF CANCER MOLECULAR SIGNALING PATHWAYS AND DRUG CANDIDATES” (H. LEE MOFFITT CANCER CENTER AND RESEARCH INSTITUTE, INC., priority 2012, published 2015).

Entries after “also recorded” stand apart in the source; their conditions may differ. Like-named read-outs stand apart in the source and are kept apart here.

What all share (assay type): cell-based
For one experiment, the system named is A2780S. The experiment can be described thus: MTS cell proliferation/viability assay, 72 hours drug exposure. As to conditions: Homo sapiens, log10 of IC50, uM. An excerpt: (§1) Ovarian cancer cell lines were either obtained from the European Collection of Cell Cultures, Salisbury, England (A2780S), or were kind gifts from Dr. Patricia Kruk, Department of Pathology, College of Medicine, University of South Florida, Tampa, Fla., and Susan Murphy, PhD, Dept of OB/GYN, Division of GYN Oncology, Duke University, Durham, N.C. (HeyA8, OVCAR2, OVCAR8, and OVCA420). Cell lines were maintained in RPMI-1640 (Invitrogen; Carlsbad, Calif.) supplemented with 10% fetal bovine serum (Fisher Scientific; Pittsburgh, Pa.), 1% sodium pyruvate, 1% penicillin/streptomycin, and 1% nonessential amino acids (HyClone; Hudson, N.H.). Mycoplasma testing was performed every 6 months following manufacturer's protocol (Lonza, Rockland, Me.).
(§2) The MTS assay was used to assess viability of the OVCA cell lines. For the assays, 3-5×10^4 cells in 100 μL were plated to each well of a 96-well plate and allowed to adhere overnight at 37° C. and 5% CO2. The following day, cells were incubated with increasing concentrations of drug for 72 hours. Cell viability was analyzed using the CellTiter96® MTS assay kit (Promega, Madison, Wis.). Three replicate wells were used for each drug concentration, and an additional three control wells received a diluent control without drug. After drug incubation, the optical density of each well was read at 490 nm using a SpectraMax 190 microplate reader (Molecular Devices Inc., Sunnyvale, Calif.). Percent cell survival was expressed as (control-treated)/(control-blank)×100. All experiments were performed three times, or the minimum number of times to ensure reproducibility and accuracy of the results.

Another experiment relates to HEYA8. Described as above. Particulars: HEY A8, log10 of IC50, uM.
Source text: as §1, §2

A further experiment deals with OVCA2. The experiment is described as above. Particulars: log10 of IC50, uM.
Source text: as §1, §2

The subject of the next experiment is OVCA420. The description is as above. Particulars: OVCA 420, log10 of IC50, uM.
Source text: as §1, §2

The next experiment concerns OVCA8. The description is as above. As to conditions: log10 of IC50, uM.
Source text: as §1, §2

The subject of the next experiment is five OVCA cell lines. The experiment can be described thus: MTS assay, summary over five OVCA cell lines. As to conditions: for IC50: five OVCA cell lines, 72 hours, MTS.
Source text: as §1, §2
The cytotoxic effects of continuous exposure to dasatinib and artesunate were assessed for five OVCA cell lines at 72 hours using the MTS assay (Table 5).
(In general: Formazan colour is commonly taken as a measure of viable cells.)

Another experiment has as its system HeyA8 OVCA cells. Briefly: In vitro scratch assay (cell migration). As to conditions: HeyA8, 25 mM or 50 mM artesunate, imaged days 0-2; DMSO vehicle closed gap within 2 days. On the procedure:
The effects of pathway inhibition on OVCA cell metastatic properties were investigated using the in vitro scratch assay. HeyA8 OVCA cells were maintained in RPMI 1640 medium (Invitrogen) supplemented with 10% fetal bovine serum (FBS; Fisher Scientific, Pittsburgh, Pa.), 1% sodiumpyruvate, 1% penicillin/streptomycin (Cellgro, Manassas, Va.), and 1% nonessential amino acids (HyClone, Hudson, N.H.). Monolayers, 75-80% confluent, were cultured in serum-free media for 4 hours and then mechanically disrupted to create a wound using a 1 mL pipette tip. Culture plates were washed twice with serum-free media to remove floating cells and then incubated with media containing 10% FBS and either vehicle (dimethylsulfoxide [DMSO]) or drug. The DMSO concentration was maintained below 0.5% so as not to influence cell growth or migration. The underside of the culture plate by the wound area was marked with a Sharpie for reference, and wounds were imaged by phase-contrast microscopy on days 0, 1, and 2.

In the next experiment the test system is HeyA8 OVCA cell. The experiment can be described thus: HeyA8 cell proliferation under artesunate.

Take `C[C@H]1[C@H](OC(=O)CCC(=O)O)O[C@@H]2O[C@@]3(C)CC[C@H]4[C@H](C)CC[C@@H]1[C@@]24OO3` [Artesunate]: the half-maximal inhibitory concentration (IC50) (commonly the concentration needed to halve the response being measured) in the experiment on A2780S was 1.23 µM; in the experiment on HEYA8, 7.92 µM; in the experiment with OVCA2 it was 1.31 µM; with OVCA420 it was 19.3 µM; in the experiment on OVCA8 it was 5.9 µM; in the experiment on five OVCA cell lines (log10 value, read-out: median IC50 (log 10) (converted)), 4290 nM. The IC50 with five OVCA cell lines (log10 values, read-out: range of IC50 (log 10) (converted)) was 88.2 to 1290 nM; with five OVCA cell lines (read-out: median IC50), 7130 nM; with five OVCA cell lines (read-out: range of IC50) it was 1230 to 19300 nM. In the experiment with five OVCA cell lines (panel of OVCA cells), the “anti-proliferative activity against a panel of OVCA cells” value is “anti-proliferative activity”. Moreover, the “ability of cells to migrate into the denuded area / fill in the gap of a scratch test” value in the experiment on HeyA8 OVCA cells is “impaired the ability of the cells to migrate; also recorded: impaired in their ability to fill in the gap”. Further, the “decrease of HeyA8 OVCA cell proliferation” value is recorded as “approximately 42%” in the experiment on HeyA8 OVCA cell (25 mM artesunate) and ~64% in the experiment with HeyA8 OVCA cell (50 mM artesunate).
As for `Cc1nc(Nc2ncc(C(=O)Nc3c(C)cccc3Cl)s2)cc(N2CCN(CCO)CC2)n1` [Dasatinib], the IC50 was 0.918 µM with A2780S; 0.215 µM with HEYA8; 0.953 µM in the experiment with OVCA2; 0.431 µM in the experiment on OVCA420; 0.37 µM in the experiment with OVCA8; 577 nM in the experiment on five OVCA cell lines (read-out: mean IC50). In addition, in the experiment with five OVCA cell lines (read-out: range of IC50), the IC50 lay within 214 to 953 nM.
